Consider three compounds from patent US9403801B2 (Calitor Sciences, LLC, priority 2014, dated 2016).

As a reminder, the half-life is how long it takes for the measured level to halve. One may read the CLint scaled as a measure of how fast metabolising enzymes remove a compound, apart from limits set by blood flow. For orientation: AUC(0-t) means the area under the concentration-time curve up to a stated or last time point. A lower AUC(0-t) goes with less exposure. By IC50 is commonly meant the concentration that inhibits the measured activity by half. High values mean weaker potency, low ones greater potency.

The nature of data set [1]: Compound stability in rat liver microsomes. Format: in vitro ADME. The conditions noted are these: for half-life at 5 μM: compound 5 μM, NADPH 1.0 mM, 37° C.; for CLint scaled at 5 μM: in vivo CLint extrapolated. A digest of the protocol:
(§1)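 After a 3-min preincubation, reactions of 5 μM compound with NADPH (1.0 mM) were started by adding microsomal protein to 0.5 mg/mL and run at 37° C in pH 7.4 phosphate buffer. Aliquots were stopped with ice-cold acetonitrile at up to 60 min. Parent levels were then measured by LC/MS/MS.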

A short description of data set [2]: Pharmacokinetics after intravenous and oral administration in rats. Type of data set: in vivo. The note with it: for Clearance (CL) after iv dosing / AUC(0-t) / half-life / Vd: dose 1 mg/kg (Ex. 27: 0.72 mg/kg), iv dosing; for F: oral bioavailability; for AUC(0-t) / half-life / Vd: rat, plasma; for Vd: read-out: Vss. A digest of the protocol: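 Rats were dosed 1 or 2 mg/kg IV or 5 or 10 mg/kg orally, as water solution, HPMC/Tween 80, DMSO/saline, MC suspension or capsule. Plasma was sampled from 0.083 or 0.25 h up to 24 h and quantified by LC/MS/MS in MRM mode with ESI.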

The nature of data set [3]: Compound stability in human liver microsomes. The conditions noted are these: for half-life at 5 μM: compound 5 μM, NADPH 1.0 mM, 37° C.; for CLint scaled at 5 μM: in vivo CLint extrapolated. Format: in vitro ADME. An outline of the steps: as §1
Data set [4] has as its target JAK3 (h) (Homo sapiens (Human), UniProt P52333). The data set can be described thus: JAK3 kinase assay (33P-ATP filter binding, Millipore). Format: biochemical. As for the experimental part: (§2) Kinase assays can be performed by measurement of incorporation of γ-^33P ATP into immobilized myelin basic protein (MBP). High binding white 384 well plates (Greiner) are coated with MBP (Sigma #M−1891) by incubation of 60 μL/well of 20 μg/mL MBP in Tris-buffered saline (TBS; 50 mM Tris pH 8.0, 138 mM NaCl, 2.7 mM KCl) for 24 h at 4° C. Plates are washed 3× with 100 μL TBS. Kinase reactions are carried out in a total volume of 34 μL in kinase buffer (5 mM Hepes pH 7.6, 15 mM NaCl, 0.01% bovine gamma globulin (Sigma #I-5506), 10 mM MgCl2, 1 mM DTT, 0.02% TritonX-100). Compound dilutions are performed in DMSO and added to assay wells to a final DMSO concentration of 1%. Each data point is measured in duplicate, and at least two duplicate assays are performed for each individual compound determination. Enzyme is added to final concentrations of 10 nM or 20 nM, for example. A mixture of unlabeled ATP and γ-^33P ATP is added to start the reaction (2×10^6 cpm of γ-^33P ATP per well (3000 Ci/mmole) and 10 μM unlabeled ATP, typically. The reactions are carried out for 1 h at room temperature with shaking. Plates are washed 7× with TBS, followed by the addition of 50 μL/well scintillation fluid (Wallac). Plates are read using a Wallac Trilux counter. This is only one format of such assays; various other formats are possible, as known to one skilled in the art.
(§3) The above assay procedure can be used to determine the IC50 for inhibition and/or the inhibition constant, Ki. The IC50 is defined as the concentration of compound required to reduce the enzyme activity by 50% under the condition of the assay. The IC50 value is estimated by preparing a 10 point curve using a 1/2 log dilution series (for example, a typical curve may be prepared using the following compound concentrations: 3 μM, 1 μM, 0.3 μM, 0.1 μM, 0.03 μM, 0.01 μM, 0.003 μM, 0.001 μM, 0.0003 μM and 0 μM).
(§4) The kinase assays described herein were performed at Millipore UK Ltd, Dundee Technology Park, Dundee DD2 1SW, UK.

Data set [5] has as its target TYK2 (h) (Homo sapiens (Human), UniProt P29597). The data set can be described thus: TYK2 kinase assay (33P-ATP filter binding, Millipore). Format: biochemical. As for the experimental part:
as §2, §3, §4

For data set [6], the target named is JAK2 (h) (Homo sapiens (Human), UniProt O60674). The data set can be described thus: JAK2 kinase assay (33P-ATP filter binding, Millipore). Type of data set: biochemical. An outline of the steps:
(§5)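 Radiometric assay of γ-33P-ATP incorporation into plate-immobilised MBP; kinase buffer pH 7.6 with 10 mM MgCl2, 10 μM unlabelled ATP typical, enzyme 10 or 20 nM final, 1% DMSO. Reactions ran 1 h at room temperature before scintillation counting. IC50 from 10-point half-log dilution curve, duplicates.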

Data set [7] addresses JAK1 (h) (Homo sapiens (Human), UniProt P23458). The data set can be described thus: JAK1 kinase assay (33P-ATP filter binding, Millipore). Format: biochemical. An outline of the steps:
as §5

Data set [8] deals with Aurora-A (h) (Homo sapiens (Human), UniProt O14965). The data set can be described thus: Aurora-A kinase assay (33P-ATP filter binding, Millipore). Type of data set: biochemical. As for the experimental part:
as §2, with “art. […]” for “art.”

Data set [9] concerns the target FLT3 (h) (Homo sapiens (Human), UniProt P36888). The data set can be described thus: FLT3 kinase assay (33P-ATP filter binding, Millipore). Type of data set: biochemical. As for the experimental part: as §2, with “art. […]” for “art.”
The mark [10] stands for this setting: pH 7.4, Rat liver microsomes 0.5 mg protein/mL.
[11] abbreviates: pH 7.4, Human liver microsomes 0.5 mg protein/mL.

Chain of TYK2 (h) (P29597 whole entry): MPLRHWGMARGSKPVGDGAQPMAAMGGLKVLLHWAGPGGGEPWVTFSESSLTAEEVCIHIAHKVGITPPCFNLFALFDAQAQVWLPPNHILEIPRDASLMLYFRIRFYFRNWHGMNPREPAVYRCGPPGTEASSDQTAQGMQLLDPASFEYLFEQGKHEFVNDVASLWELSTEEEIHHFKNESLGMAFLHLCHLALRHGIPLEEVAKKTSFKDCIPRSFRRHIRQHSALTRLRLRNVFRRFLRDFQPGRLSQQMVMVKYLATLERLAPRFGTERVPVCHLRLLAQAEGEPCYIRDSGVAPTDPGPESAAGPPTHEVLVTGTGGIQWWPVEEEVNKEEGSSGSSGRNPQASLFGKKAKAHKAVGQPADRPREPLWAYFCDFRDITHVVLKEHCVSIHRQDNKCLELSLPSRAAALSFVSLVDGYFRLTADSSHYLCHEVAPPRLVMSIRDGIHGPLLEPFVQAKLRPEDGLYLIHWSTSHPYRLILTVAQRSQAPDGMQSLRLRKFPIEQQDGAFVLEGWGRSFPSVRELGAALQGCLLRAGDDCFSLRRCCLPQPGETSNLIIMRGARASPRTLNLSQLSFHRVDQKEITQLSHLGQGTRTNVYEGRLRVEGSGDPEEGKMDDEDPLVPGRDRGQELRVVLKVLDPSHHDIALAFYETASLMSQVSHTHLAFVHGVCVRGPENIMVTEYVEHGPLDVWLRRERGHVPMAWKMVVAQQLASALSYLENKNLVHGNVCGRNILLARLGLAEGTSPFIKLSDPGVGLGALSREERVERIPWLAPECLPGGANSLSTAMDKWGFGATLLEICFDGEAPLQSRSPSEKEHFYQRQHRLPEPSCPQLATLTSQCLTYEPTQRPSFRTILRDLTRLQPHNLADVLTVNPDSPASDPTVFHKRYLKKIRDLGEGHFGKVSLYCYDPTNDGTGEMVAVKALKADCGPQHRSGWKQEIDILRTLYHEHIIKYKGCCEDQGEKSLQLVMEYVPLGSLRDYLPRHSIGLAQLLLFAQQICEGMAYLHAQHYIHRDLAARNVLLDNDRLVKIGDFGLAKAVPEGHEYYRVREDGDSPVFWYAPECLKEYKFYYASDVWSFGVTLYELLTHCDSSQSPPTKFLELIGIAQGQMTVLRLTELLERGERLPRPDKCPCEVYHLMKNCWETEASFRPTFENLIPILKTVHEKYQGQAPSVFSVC
Chain of JAK3 (h) (P52333 whole entry): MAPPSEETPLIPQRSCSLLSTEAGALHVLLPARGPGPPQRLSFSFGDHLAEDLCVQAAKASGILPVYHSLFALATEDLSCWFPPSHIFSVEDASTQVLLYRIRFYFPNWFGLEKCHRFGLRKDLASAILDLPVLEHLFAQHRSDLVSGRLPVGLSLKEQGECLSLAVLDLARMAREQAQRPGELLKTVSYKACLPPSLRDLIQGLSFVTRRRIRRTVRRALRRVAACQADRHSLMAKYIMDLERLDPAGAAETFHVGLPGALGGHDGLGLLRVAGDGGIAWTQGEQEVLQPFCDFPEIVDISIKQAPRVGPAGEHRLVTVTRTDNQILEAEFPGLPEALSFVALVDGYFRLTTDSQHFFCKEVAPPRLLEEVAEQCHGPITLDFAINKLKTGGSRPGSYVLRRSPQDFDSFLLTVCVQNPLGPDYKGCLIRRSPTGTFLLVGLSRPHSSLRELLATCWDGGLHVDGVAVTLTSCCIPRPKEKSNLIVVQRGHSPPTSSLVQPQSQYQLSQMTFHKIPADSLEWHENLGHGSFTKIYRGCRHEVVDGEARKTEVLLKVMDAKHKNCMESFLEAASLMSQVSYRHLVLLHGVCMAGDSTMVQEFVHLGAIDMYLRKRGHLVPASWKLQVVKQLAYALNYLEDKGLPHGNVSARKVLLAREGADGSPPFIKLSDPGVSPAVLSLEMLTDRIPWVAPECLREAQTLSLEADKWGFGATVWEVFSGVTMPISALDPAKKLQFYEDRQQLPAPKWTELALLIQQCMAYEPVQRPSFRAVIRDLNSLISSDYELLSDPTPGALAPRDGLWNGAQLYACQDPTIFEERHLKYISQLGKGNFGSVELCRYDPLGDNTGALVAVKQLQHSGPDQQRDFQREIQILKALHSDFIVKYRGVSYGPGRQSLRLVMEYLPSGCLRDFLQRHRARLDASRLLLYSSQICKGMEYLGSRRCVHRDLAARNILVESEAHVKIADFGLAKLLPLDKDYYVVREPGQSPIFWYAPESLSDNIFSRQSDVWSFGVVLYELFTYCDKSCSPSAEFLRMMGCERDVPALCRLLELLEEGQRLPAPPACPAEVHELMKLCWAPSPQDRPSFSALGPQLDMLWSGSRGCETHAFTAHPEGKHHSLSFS
Chain of JAK2 (h) (O60674 whole entry): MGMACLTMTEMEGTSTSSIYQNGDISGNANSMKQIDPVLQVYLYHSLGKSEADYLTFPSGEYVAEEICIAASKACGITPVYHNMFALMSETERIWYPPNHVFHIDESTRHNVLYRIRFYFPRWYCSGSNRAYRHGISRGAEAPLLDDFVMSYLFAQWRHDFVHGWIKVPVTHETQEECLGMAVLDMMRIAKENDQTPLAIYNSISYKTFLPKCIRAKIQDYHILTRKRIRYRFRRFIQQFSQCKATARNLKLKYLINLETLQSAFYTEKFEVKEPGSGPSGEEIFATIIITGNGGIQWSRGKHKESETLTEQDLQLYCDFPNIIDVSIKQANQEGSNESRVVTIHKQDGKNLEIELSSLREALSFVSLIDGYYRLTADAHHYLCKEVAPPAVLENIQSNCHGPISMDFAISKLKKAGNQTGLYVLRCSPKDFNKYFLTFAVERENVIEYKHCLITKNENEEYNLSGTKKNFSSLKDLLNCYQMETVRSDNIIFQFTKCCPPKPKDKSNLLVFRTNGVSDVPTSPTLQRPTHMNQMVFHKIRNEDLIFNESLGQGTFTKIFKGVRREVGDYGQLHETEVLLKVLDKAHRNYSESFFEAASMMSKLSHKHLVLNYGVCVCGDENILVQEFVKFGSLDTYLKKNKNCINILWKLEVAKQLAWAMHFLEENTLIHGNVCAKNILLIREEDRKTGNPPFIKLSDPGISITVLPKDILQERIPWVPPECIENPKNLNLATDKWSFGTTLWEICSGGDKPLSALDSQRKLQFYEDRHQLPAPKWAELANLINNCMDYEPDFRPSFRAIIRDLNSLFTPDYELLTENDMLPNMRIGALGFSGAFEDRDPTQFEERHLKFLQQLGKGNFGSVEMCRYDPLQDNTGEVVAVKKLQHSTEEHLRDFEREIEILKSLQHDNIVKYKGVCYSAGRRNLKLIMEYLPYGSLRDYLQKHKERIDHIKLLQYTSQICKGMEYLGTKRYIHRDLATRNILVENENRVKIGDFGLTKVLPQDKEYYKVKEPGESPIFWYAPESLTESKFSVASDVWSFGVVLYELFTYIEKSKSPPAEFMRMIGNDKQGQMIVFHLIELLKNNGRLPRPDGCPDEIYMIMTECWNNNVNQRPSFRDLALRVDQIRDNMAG
Chain of JAK1 (h) (P23458 whole entry): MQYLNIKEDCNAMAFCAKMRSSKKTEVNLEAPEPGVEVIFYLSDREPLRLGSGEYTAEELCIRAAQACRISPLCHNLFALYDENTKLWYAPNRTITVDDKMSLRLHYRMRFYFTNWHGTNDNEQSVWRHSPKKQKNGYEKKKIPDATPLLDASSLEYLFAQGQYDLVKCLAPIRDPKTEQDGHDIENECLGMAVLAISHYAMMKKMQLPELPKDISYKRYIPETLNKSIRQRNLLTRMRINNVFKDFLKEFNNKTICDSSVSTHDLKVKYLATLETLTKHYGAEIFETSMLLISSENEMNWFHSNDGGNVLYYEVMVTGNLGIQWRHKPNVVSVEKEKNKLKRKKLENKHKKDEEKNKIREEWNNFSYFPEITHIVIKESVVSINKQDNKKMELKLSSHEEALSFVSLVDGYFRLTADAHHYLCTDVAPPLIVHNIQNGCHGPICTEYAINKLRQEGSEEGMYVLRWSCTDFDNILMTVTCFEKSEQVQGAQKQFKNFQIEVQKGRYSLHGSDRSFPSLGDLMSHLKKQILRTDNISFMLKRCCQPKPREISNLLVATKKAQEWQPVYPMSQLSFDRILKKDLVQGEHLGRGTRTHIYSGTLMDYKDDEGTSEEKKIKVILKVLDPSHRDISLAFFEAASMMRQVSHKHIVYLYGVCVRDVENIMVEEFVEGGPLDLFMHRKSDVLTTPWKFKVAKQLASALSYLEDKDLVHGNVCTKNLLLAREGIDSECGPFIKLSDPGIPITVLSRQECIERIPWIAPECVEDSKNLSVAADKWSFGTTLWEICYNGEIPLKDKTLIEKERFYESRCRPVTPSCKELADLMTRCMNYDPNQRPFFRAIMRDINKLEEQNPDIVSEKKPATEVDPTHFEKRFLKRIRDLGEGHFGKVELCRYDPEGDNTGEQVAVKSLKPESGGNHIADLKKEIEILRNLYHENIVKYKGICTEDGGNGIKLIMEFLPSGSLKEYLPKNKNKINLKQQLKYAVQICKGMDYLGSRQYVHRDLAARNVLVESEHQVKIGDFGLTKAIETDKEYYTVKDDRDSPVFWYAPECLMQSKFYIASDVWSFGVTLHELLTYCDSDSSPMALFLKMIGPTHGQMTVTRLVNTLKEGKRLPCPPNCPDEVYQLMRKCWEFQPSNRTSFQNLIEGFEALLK
Chain of Aurora-A (h) (O14965 whole entry): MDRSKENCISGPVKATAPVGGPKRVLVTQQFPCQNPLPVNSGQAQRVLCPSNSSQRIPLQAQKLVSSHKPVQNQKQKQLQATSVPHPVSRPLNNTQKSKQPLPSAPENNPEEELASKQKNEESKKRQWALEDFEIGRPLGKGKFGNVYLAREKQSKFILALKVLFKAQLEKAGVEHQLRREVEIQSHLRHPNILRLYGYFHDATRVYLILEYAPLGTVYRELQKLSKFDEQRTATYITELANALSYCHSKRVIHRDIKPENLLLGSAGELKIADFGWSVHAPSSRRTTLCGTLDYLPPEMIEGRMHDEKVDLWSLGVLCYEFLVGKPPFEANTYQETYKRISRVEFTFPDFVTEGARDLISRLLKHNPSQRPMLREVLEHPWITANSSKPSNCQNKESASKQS

As to `Cn1cc(Nc2ncc(Cl)c(NC3CC4CN(C(=O)CC#N)CC4C3)n2)cn1` (stereo not shown) [Ex. 12, 3-(5-((5-chloro-2-((1-methyl-1H-pyrazol-4-yl)amino)pyrimidin-4-yl)amino)hexahydrocyclopenta[c]pyrrol-2(1H)-yl)-3-oxopropanenitrile], the results for the half-life at 5 μM in data set [1] (setting [10]) and in data set [3] (setting [11]) were 12 min and 187 min, respectively. The CLint scaled at 5 μM in data set [1] (pH 7.4, Rat liver microsomes) is 208 mL/min/kg; in [3] (pH 7.4, Human liver microsomes), 9.3 mL/min/kg. Moreover, the “Clearance (CL) after iv dosing” value in [2] was 121 mL/min/kg. The F in [2] is reported as 39.2%. This compound also came in with an AUC(0-t) in data set [2] of 143 ng·h/mL. Besides, the half-life in data set [2] is 14.4 min. Further, in [2], the Vd worked out at 1.75 L/kg. The IC50 in data set [4] amounted to 359 nM; in [5] it was 7 nM; in data set [6], 18 nM; in [7] it was 1 nM.
As for `Cn1cc(Nc2ncc(Cl)c(NC3CC4CN(S(C)(=O)=O)CC4C3)n2)cn1` (stereo not shown) [Ex. 31, 5-chloro-N^2-(1-methyl-1H-pyrazol-4-yl)-N^4-(2-(methylsulfonyl)octahydrocyclopenta[c]pyrrol-5-yl)pyrimidine-2,4-diamine], the half-life at 5 μM in data set [1] (setting [10]) came to 13.2 min; in data set [3] (setting [11]), 67.2 min. Besides, the CLint scaled at 5 μM was 188 mL/min/kg in data set [1] (pH 7.4, Rat liver microsomes) and 25.9 mL/min/kg in data set [3] (pH 7.4, Human liver microsomes). Moreover, in data set [2], the “Clearance (CL) after iv dosing” value worked out at 61.2 mL/min/kg. In data set [2], the F amounted to 25.7%. This compound also came in with an AUC(0-t) in data set [2] of 272 ng·h/mL. This compound had a half-life in data set [2] of 39.6 min. Further, in data set [2], the Vd was found to be 2.06 L/kg. For the same compound, the IC50 came to 4 nM in data set [8]; 178 nM in data set [4]; 18 nM in data set [5]; 12 nM in data set [6]; 134 nM in [9]; 1 nM in [7].
`CC(=O)N1CCC2(CCC(Nc3nc(Nc4cnn(C)c4)ncc3Cl)CC2)CC1` [Ex. 28, 1-(9-((5-chloro-2-((1-methyl-1H-pyrazol-4-yl)amino)pyrimidin-4-yl)amino)-3-azaspiro[5.5]undecan-3-yl)ethanone]: the half-life at 5 μM in [1] (rat, liver microsomes, pH 7.4, Rat liver microsomes 0.5 mg protein/mL) stood at 73.6 min; in [3] (human, liver microsomes, pH 7.4, Human liver microsomes 0.5 mg protein/mL) it was 268 min. Also, the CLint scaled at 5 μM in [1] (rat, liver microsomes, pH 7.4, Rat liver microsomes) was 33.8 mL/min/kg; in data set [3] (human, liver microsomes, pH 7.4, Human liver microsomes), 6.49 mL/min/kg. Also, the “Clearance (CL) after iv dosing” value in data set [2] was found to be 71 mL/min/kg. This compound registered a F in [2] of 63.6%. The AUC(0-t) in data set [2] came out at 251 ng·h/mL. Besides, in [2], the half-life was 39 min. The Vd in data set [2] was 3.06 L/kg. Besides, the IC50 was 22 nM in [8]; 47 nM in [4]; 4 nM in data set [5]; 4 nM in [6]; 16 nM in [9]; 0.9 nM in [7].
